According to ChEMBL document CHEMBL2439971, “Design, synthesis and antiproliferative evaluation of fluorenone analogs with DNA topoisomerase I inhibitory properties” (Bioorg Med Chem, 2013):
Active and inactive are the calls of the source. The rule behind the calls is not given here.

Experiments:
[1] = Cytotoxicity against human NCI60 cells; assay type: functional
Homo sapiens = species on record: Homo sapiens; test: Inhibition of telomerase (unknown origin) at 10 uM TRAP assay
CAKI-1 = test: Cytotoxicity against human CAKI-1 cells at 10 uM after 48 hrs by sulforhodamine B assay relative to control; assay type: functional
MDA-MB-468 = test: Cytotoxicity against human MDA-MB-468 cells at 10 uM after 48 hrs by sulforhodamine B assay relative to control; assay type: functional
T47D = test: Cytotoxicity against human T47D cells at 10 uM after 48 hrs by sulforhodamine B assay relative to control; assay type: functional
BT-549 = test: Cytotoxicity against human BT549 cells at 10 uM after 48 hrs by sulforhodamine B assay relative to control; assay type: functional
[2] = Cytotoxicity against human Hs 578T cells at 10 uM after 48 hrs by sulforhodamine B assay relative to control; assay type: functional
MDA-MB-231 = test: Cytotoxicity against human MDA-MB-231 cells at 10 uM after 48 hrs by sulforhodamine B assay relative to control; assay type: functional
MCF7 = test: Cytotoxicity against human MCF7 cells at 10 uM after 48 hrs by sulforhodamine B assay relative to control; assay type: functional
DU-145 = test: Cytotoxicity against human DU145 cells at 10 uM after 48 hrs by sulforhodamine B assay relative to control; assay type: functional
PC-3 [3] = test: Cytotoxicity against human PC3 cells at 10 uM after 48 hrs by sulforhodamine B assay relative to control; assay type: functional
UO-31 = test: Cytotoxicity against human UO31 cells at 10 uM after 48 hrs by sulforhodamine B assay relative to control; assay type: functional
TK-10 = test: Cytotoxicity against human TK10 cells at 10 uM after 48 hrs by sulforhodamine B assay relative to control; assay type: functional
SN12C = test: Cytotoxicity against human SN12C cells at 10 uM after 48 hrs by sulforhodamine B assay relative to control; assay type: functional
RXF 393 = test: Cytotoxicity against human RXF393 cells at 10 uM after 48 hrs by sulforhodamine B assay relative to control; assay type: functional
ACHN = test: Cytotoxicity against human ACHN cells at 10 uM after 48 hrs by sulforhodamine B assay relative to control; assay type: functional
786-0 = test: Cytotoxicity against human 786-0 cells at 10 uM after 48 hrs by sulforhodamine B assay relative to control; assay type: functional
NCI/ADR-RES = test: Cytotoxicity against human NCI/ADR-RES cells at 10 uM after 48 hrs by sulforhodamine B assay relative to control; assay type: functional
OVCAR-8 = test: Cytotoxicity against human OVCAR8 cells at 10 uM after 48 hrs by sulforhodamine B assay relative to control; assay type: functional
OVCAR-5 = test: Cytotoxicity against human OVCAR5 cells at 10 uM after 48 hrs by sulforhodamine B assay relative to control; assay type: functional
OVCAR-4 = test: Cytotoxicity against human OVCAR4 cells at 10 uM after 48 hrs by sulforhodamine B assay relative to control; assay type: functional
OVCAR-3 = test: Cytotoxicity against human OVCAR3 cells at 10 uM after 48 hrs by sulforhodamine B assay relative to control; assay type: functional
IGROV-1 = test: Cytotoxicity against human IGROV1 cells at 10 uM after 48 hrs by sulforhodamine B assay relative to control; assay type: functional
UACC-62 = test: Cytotoxicity against human UACC62 cells at 10 uM after 48 hrs by sulforhodamine B assay relative to control; assay type: functional
UACC-257 = test: Cytotoxicity against human UACC257 cells at 10 uM after 48 hrs by sulforhodamine B assay relative to control; assay type: functional
SK-MEL-5 = test: Cytotoxicity against human SK-MEL-5 cells at 10 uM after 48 hrs by sulforhodamine B assay relative to control; assay type: functional
SK-MEL-28 = test: Cytotoxicity against human SK-MEL-28 cells at 10 uM after 48 hrs by sulforhodamine B assay relative to control; assay type: functional
SK-MEL-2 = test: Cytotoxicity against human SK-MEL-2 cells at 10 uM after 48 hrs by sulforhodamine B assay relative to control; assay type: functional
MDA-MB-435 = test: Cytotoxicity against human MDA-MB-435 cells at 10 uM after 48 hrs by sulforhodamine B assay relative to control; assay type: functional
M14 = test: Cytotoxicity against human M14 cells at 10 uM after 48 hrs by sulforhodamine B assay relative to control; assay type: functional
Malme-3M = test: Cytotoxicity against human MALME-3M cells at 10 uM after 48 hrs by sulforhodamine B assay relative to control; assay type: functional
LOX IMVI = test: Cytotoxicity against human LOXIMVI cells at 10 uM after 48 hrs by sulforhodamine B assay relative to control; assay type: functional
SNB-75 = test: Cytotoxicity against human SNB75 cells at 10 uM after 48 hrs by sulforhodamine B assay relative to control; assay type: functional
U-251 = test: Cytotoxicity against human U251 cells at 10 uM after 48 hrs by sulforhodamine B assay relative to control; assay type: functional
SF-539 = test: Cytotoxicity against human SF539 cells at 10 uM after 48 hrs by sulforhodamine B assay relative to control; assay type: functional
SNB-19 = test: Cytotoxicity against human SNB19 cells at 10 uM after 48 hrs by sulforhodamine B assay relative to control; assay type: functional
SF-295 = test: Cytotoxicity against human SF295 cells at 10 uM after 48 hrs by sulforhodamine B assay relative to control; assay type: functional
SF-268 = test: Cytotoxicity against human SF268 cells at 10 uM after 48 hrs by sulforhodamine B assay relative to control; assay type: functional
SW-620 = test: Cytotoxicity against human SW620 cells at 10 uM after 48 hrs by sulforhodamine B assay relative to control; assay type: functional
KM12 = test: Cytotoxicity against human KM12 cells at 10 uM after 48 hrs by sulforhodamine B assay relative to control; assay type: functional
HT-29 = test: Cytotoxicity against human HT-29 cells at 10 uM after 48 hrs by sulforhodamine B assay relative to control; assay type: functional
HCT-15 = test: Cytotoxicity against human HCT15 cells at 10 uM after 48 hrs by sulforhodamine B assay relative to control; assay type: functional
HCT-116 = test: Cytotoxicity against human HCT116 cells at 10 uM after 48 hrs by sulforhodamine B assay relative to control; assay type: functional
HCC 2998 = test: Cytotoxicity against human HCC2998 cells at 10 uM after 48 hrs by sulforhodamine B assay relative to control; assay type: functional
COLO 205 = test: Cytotoxicity against human COLO205 cells at 10 uM after 48 hrs by sulforhodamine B assay relative to control; assay type: functional
NCI-H522 = test: Cytotoxicity against human NCI-H522 cells at 10 uM after 48 hrs by sulforhodamine B assay relative to control; assay type: functional
NCI-H460 = test: Cytotoxicity against human NCI-H460 cells at 10 uM after 48 hrs by sulforhodamine B assay relative to control; assay type: functional
NCI-H322M = test: Cytotoxicity against human NCI-H322M cells at 10 uM after 48 hrs by sulforhodamine B assay relative to control; assay type: functional
NCI-H23 = test: Cytotoxicity against human NCI-H23 cells at 10 uM after 48 hrs by sulforhodamine B assay relative to control; assay type: functional
NCI-H226 = test: Cytotoxicity against human NCI-H226 cells at 10 uM after 48 hrs by sulforhodamine B assay relative to control; assay type: functional
HOP-92 = test: Cytotoxicity against human HOP92 cells at 10 uM after 48 hrs by sulforhodamine B assay relative to control; assay type: functional
HOP-62 = test: Cytotoxicity against human HOP62 cells at 10 uM after 48 hrs by sulforhodamine B assay relative to control; assay type: functional
[4] = Cytotoxicity against human EKVX cells at 10 uM after 48 hrs by sulforhodamine B assay relative to control; assay type: functional
A549 = test: Cytotoxicity against human A549 cells at 10 uM after 48 hrs by sulforhodamine B assay relative to control; assay type: functional
SR = test: Cytotoxicity against human SR cells at 10 uM after 48 hrs by sulforhodamine B assay relative to control; assay type: functional
RPMI-8226 = test: Cytotoxicity against human RPMI8226 cells at 10 uM after 48 hrs by sulforhodamine B assay relative to control; assay type: functional
MOLT-4 = test: Cytotoxicity against human MOLT4 cells at 10 uM after 48 hrs by sulforhodamine B assay relative to control; assay type: functional
K562 = test: Cytotoxicity against human K562 cells at 10 uM after 48 hrs by sulforhodamine B assay relative to control; assay type: functional
HL-60(TB) = test: Cytotoxicity against human HL-60(TB) cells at 10 uM after 48 hrs by sulforhodamine B assay relative to control; assay type: functional
CCRF-CEM = test: Cytotoxicity against human CCRF-CEM cells at 10 uM after 48 hrs by sulforhodamine B assay relative to control; assay type: functional
PC-3 [5] = test: Cytotoxicity against human PC3 cells after 48 hrs by sulforhodamine B assay; assay type: functional, cell-based; details: PC-3, 48 h

## CCN(CC)CCC(=O)Nc1ccc2c(c1)C(=O)c1cc(NC(=O)CCN(CC)CC)ccc1C2=O
[1]
  GI50: 2570 nM

## CCNCCC(=O)Nc1ccc2c(c1)C(=O)c1cc(NC(=O)CCNCC)ccc1-2
Homo sapiens
  inhibition: inactive
CAKI-1
  Activity: 96.47%
MDA-MB-468
  Activity: 96.83%
T47D
  Activity: 108.97%
BT-549
  Activity: 119.2%
[2]
  Activity: 98.9%
MDA-MB-231
  Activity: 105.71%
MCF7
  Activity: 87.69%
DU-145
  Activity: 120.33%
PC-3 [3]
  Activity: 101.42%
UO-31
  Activity: 102.42%
TK-10
  Activity: 103.34%
SN12C
  Activity: 94.35%
RXF 393
  Activity: 105.09%
ACHN
  Activity: 120.72%
786-0
  Activity: 102.08%
NCI/ADR-RES
  Activity: 96.39%
OVCAR-8
  Activity: 103.63%
OVCAR-5
  Activity: 110.42%
OVCAR-4
  Activity: 105.01%
OVCAR-3
  Activity: 120.25%
IGROV-1
  Activity: 108.06%
UACC-62
  Activity: 100.48%
UACC-257
  Activity: 111.63%
SK-MEL-5
  Activity: 102.17%
SK-MEL-28
  Activity: 105.31%
SK-MEL-2
  Activity: 126.91%
MDA-MB-435
  Activity: 97.63%
M14
  Activity: 113.99%
Malme-3M
  Activity: 101.61%
LOX IMVI
  Activity: 97.55%
SNB-75
  Activity: 92.33%
U-251
  Activity: 92.86%
SF-539
  Activity: 116.97%
SNB-19
  Activity: 100.42%
SF-295
  Activity: 88.95%
SF-268
  Activity: 121.13%
SW-620
  Activity: 101.71%
KM12
  Activity: 114.64%
HT-29
  Activity: 104.19%
HCT-15
  Activity: 108.19%
HCT-116
  Activity: 109.77%
HCC 2998
  Activity: 104.87%
COLO 205
  Activity: 110.13%
NCI-H522
  Activity: 103.53%
NCI-H460
  Activity: 109.14%
NCI-H322M
  Activity: 100.96%
NCI-H23
  Activity: 98.77%
NCI-H226
  Activity: 105.54%
HOP-92
  Activity: 87.24%
HOP-62
  Activity: 105.98%
[4]
  Activity: 102.12%
A549
  Activity: 94.72%
SR
  Activity: 101.47%
RPMI-8226
  Activity: 104.16%
MOLT-4
  Activity: 98.76%
K562
  Activity: 92.16%
HL-60(TB)
  Activity: 104.46%
CCRF-CEM
  Activity: 101.3%
PC-3 [5]
  IC50: > 30 µM
